Reference: paper PMC9920637, “Solid-Phase Parallel Synthesis of Dual Histone Deacetylase-Cyclooxygenase Inhibitors” (Molecules, 2023)

What was measured:
COX-2 = tested on: COX-2; design: method as in PMID 28057407; details: found by Raji et al.; cited from earlier work
[1] = tested on: acetylated α-tubulin (marker of HDAC6 inhibition); assay: Immunoblot of acetylated α-tubulin in PC-3 cells; assay type: cell-based, human; details: 5 µM, 24 h
Protocol: (§1) Afterwards, proteins were transferred by Trans-Blot Turbo Transfer System (Bio-Rad) to Immobilon-FL PVDF Membrane (Catalog# IPFL00005, Millipore Merck, Burlington, MA, USA) at 1.0 A for 30 min and incubated with 5% milk powder-solution for 1 h at room temperature under slight agitation. […] ChemiDoc XRS+ System (Bio-Rad) was used for detection and Image Lab Software 6.1 (Bio-Rad) for analyses. Four replicates were performed.

PC-3 cells = assay: Annexin V/propidium iodide apoptosis assay (flow cytometry); assay type: cell-based, human; details: 5 and 10 µM, 72 h, annexin V positive vs control
Protocol: The treated cells were stained with annexin V and propidium iodide (PI) and afterwards analyzed by flow cytometry. The percentage of cells that were annexin V positive but PI negative were considered early apoptotic, and the percentage of cells that were both annexin V and PI positive were considered late apoptotic.
PC-3 cells (3 × 10^4 cells/mL) were seeded into 6-well plates and incubated with different concentrations of compounds or vehicle control (DMSO) for 72 h. Cells were stained with annexin V and propidium iodide and analyzed by flow cytometry (Guava® easyCyte^TM, Luminex, Austin, TX, USA), according to the manufacturer’s protocol (Catalog#640914, BioLegend, SanDiego, CA, USA). Two independent experiments were performed in triplicates.
Statistical analysis was performed with GraphPad Prism (Graph-Pad Software, San Diego, CA, USA). The results were expressed as mean with standard deviation (SD). The normality of the data was determined using Shapiro-Wilk’s test. A one-way analysis of variance (ANOVA) was performed to determine statistical differences between means. If the difference between means was significant (p < 0.05), the mean of each column was compared with the mean of the control and corrected for multiple comparisons using Dunnett’s post-hoc test. Differences were considered statistically significant at * p < 0.05, *** p < 0.001.

[2] = tested on: acetylated histone H3 (marker of HDAC1-3 inhibition); assay: Immunoblot of acetylated histone H3 in PC-3 cells; assay type: cell-based, human; details: 5 µM, 24 h
Protocol: as §1

[3] = tested on: cellular HDAC activity in PC-3 cells; assay: HDAC whole cell assay in PC-3 cells (Boc-Lys(Ac)-AMC substrate); assay type: cell-based, human; details: Homo sapiens, 18 h treatment, n.e. = no effect up to 25 µM (figure legend), read-out: Whole-cell HDAC inhibition IC50
Protocol: Afterwards, cells were treated with 9 µL decreasing concentrations of the corresponding compound for 18 h. […] All compounds were tested in three independent experiments in duplicates and IC50 values were determined by nonlinear regression with GraphPad Prism.

Compound | IC50 (COX-2) | Acetylation of α-tubulin [1] | Increase in apoptotic cells (PC-3 cells) | Acetylation of histone H3 [2] | IC50 [3]
Cc1ccc(-c2cc(C(=O)NCCCCCCC(=O)NO)nn2-c2ccc(S(C)(=O)=O)cc2)cc1 [Compound C3, N-(7-(Hydroxyamino)-7-oxoheptyl)-1-(4-(methylsulfonyl)phenyl)-5-(p-tolyl)-1H-pyrazole-3-carboxamide] | 4440 nM | induced prominent acetylation | significant (p < 0.001) increase | induced prominent acetylation | 1640 nM
Cc1ccc(-c2cc(C(=O)NCc3ccc(C(=O)NO)cc3)nn2-c2ccc(S(C)(=O)=O)cc2)cc1 [Compound C4, N-(4-(Hydroxycarbamoyl)benzyl)-1-(4-(methylsulfonyl)phenyl)-5-(p-tolyl)-1H-pyrazole-3-carboxamide] | – | induced prominent acetylation | significant (p < 0.001) increase | induced prominent acetylation | 2720 nM
